Laboratory results: patent US12626779B2, “Determining a targeted therapy using virtual inference of protein activity by regulon enrichment analysis of an individual subject tissue sample” (The Trustees of Columbia University in the City of New York, priority 2015, dated 2026)
Where “and” joins values, the source holds several entries; their conditions need not be identical. Equal entries are not always repeated. Where two headings read alike, the source gives them in different places.

System: lung adenocarcinoma cell lines
Source text: FIG. 7A illustrates the probability density for the nonmutated (salmon) and mutated (green) samples based on MPS for six actionable mutations (complete list in FIGS. 21A-21F). Right plots show MPS (v axis) for all samples rank-sorted by MPS; green vertical lines indicate the mutated samples. MPS-defined WT and mutant phenotypes (likelihood ratio >3) are highlighted in salmon and green. […] Scatter plots show drug sensitivity, quantified by the area under the titration curves (AUC), for EGFR-targeting drugs as a function of MPS (expressed as likelihood ratio). Cell lines resembling an EGFR mutated and WT phenotypes are highlighted in green (likelihood ratio >3) and salmon boxes, respectively. Green dots indicate cell lines harboring nonsilent mutations. Solid and doted horizontal lines indicate the mean and 2.33 standard deviation over the mean of the chemoresistant cell lines, respectively. […] Violin plots show the probability density for drug sensitivity (AUC) of the cell lines showing an EGFR WT (green) or mutant (brown) phenotype according to MPS; horizontal lines indicate distribution means, which were contrasted by Student t-test (P values in insets).

[1] = EGFR-mutated cell lines with MPS>0.5
[2] = cell lines with low EGFR MPS (<−0.5) that yet harbored EGFR mutations

Compound | fraction of cell lines responding to EGFR inhibitors (EGFR WT cell lines with MPS<−0.5) | fraction of cell lines responding to EGFR inhibitors (EGFR WT cell lines with MPS>0.5) | cell lines observed to be sensitive to the drug (sensitive/total) [1] | cell lines observed to be sensitive to the drug (sensitive/total) [2] | fraction of cell lines responding to EGFR inhibitors
CN1CCN(CCOc2cc(OC3CCOCC3)c3c(Nc4c(Cl)ccc5c4OCO5)ncnc3c2)CC1 [AZD0530, saracatinib] | 33% | 50% | 5/6 | 0/2 | –
C#Cc1cccc(Nc2ncnc3cc(OCCOC)c(OCCOC)cc23)c1 [erlotinib] | – | – | 5/6 | 1/2 | –
CS(=O)(=O)CCNCc1ccc(-c2ccc3ncnc(Nc4ccc(OCc5cccc(F)c5)c(Cl)c4)c3c2)o1 [lapatinib] | – | – | 4/6 | 1/2 | 36% and 27%
